Reference: BindingDB's records for doi:10.1016/j.ejmech.2021.113317 (Universities of Shandong, 2021)

Assays:
[1] = Reversal of BCRP-mediated multidrug resistance in human KBV cells assessed as mitoxantrone IC50 at 10 uM after 72 hrs in presence of mitoxantrone by MTT assay (Rvb = 1186.50 +/- 29.24 nM)
[2] = Reversal of MRP2-mediated multidrug resistance in human KBV cells assessed as cisplatin IC50 at 10 uM after 72 hrs in presence of cisplatin by MTT assay (Rvb = 4902.89 +/- 130.33 nM)
[3] = Reversal of MRP2-mediated multidrug resistance in human KBV cells assessed as cisplatin IC50 at 5 uM after 72 hrs in presence of cisplatin by MTT assay (Rvb = 4902.89 +/- 130.33 nM)
[4] = Reversal of BCRP-mediated multidrug resistance in human KBV cells assessed as mitoxantrone IC50 at 5 uM after 72 hrs in presence of mitoxantrone by MTT assay (Rvb = 1186.50 +/- 29.24 nM)

| SMILES | IC50 [1] | IC50 [2] | IC50 [3] | IC50 [4] |
| --- | --- | --- | --- | --- |
| CSCC[C@H](NC(=O)OC(C)(C)C)C(=O)O[C@H]1CC[C@]2(C)[C@H]3C[C@@H](O)[C@@H]4[C@@H]([C@]5(C)CC[C@H](C(C)(C)O)O5)CC[C@@]4(C)[C@]3(C)CC[C@H]2C1(C)C | 0.748 µM | > 5 µM | > 5 µM | 0.843 µM |
| COc1ccc(CCN(C)CCCC(C#N)(c2ccc(OC)c(OC)c2)C(C)C)cc1OC (centres undefined) [NSC_62969] |  | > 5 µM |  |  |
| CSCC[C@H](NC(=O)OC(C)(C)C)C(=O)O[C@H]1CC[C@]2(C)[C@H]3C[C@@H](O)[C@@H]4[C@@H]([C@]5(C)CC[C@@H](C(C)(C)O)O5)CC[C@@]4(C)[C@]3(C)CC[C@H]2C1(C)C | 1.01 µM | > 5 µM | > 5 µM | 1.46 µM |
